# Values quoted from earlier work in patent publication US20130296430A1, “COMPOSITIONS AND METHODS FOR TREATING AUTISM AND AUTISM SPECTRUM DISORDER” (priority 2012, published 2013).
# Settings: doses less than NAC; effects counter to those reported for NAC; Samstrand et al 1999; cited from earlier work
structure (smiles),measurement,value
CC(=O)N[C@@H](CSSC[C@H](NC(C)=O)C(=O)O)C(=O)O [oxidized form of NAC],bioactive dose relative to NAC,10-100 fold
